Legend:
PI3K [1] = target: T1, PI3K (Homo sapiens, UniProt P42336); assay: Eurofins in vitro kinase inhibition assay (HTRF, PIP3 displacement); assay type: biochemical; design: purchased Eurofins Cerep (contract assay); details: compound 20 µM; mean (SD); above 50% significant, 25-50% weak
Procedure: (§1) Kinase inhibition assays for EGFR, ErbB2, PI3K and BRAF were carried out by Eurofins Cerep following the protocols of Weber et al. (EGFR), Quian et al. (ErbB2), Sinnamon et al. (PI3K) and Kupcho et al. (BRAF). Briefly, except for PI3K, compounds were incubated with the respective kinase, ATP, and a substrate analog, and the effect of each compound on phosphorylation was measured. In the case of PI3K, the displacement of biotinylated PIP3 from a PIP3-binding complex by unlabelled PIP3 (produced from PIP2 by PI3K) was measured by Homogeneous Time Resolved Fluorescence (HTRF).
(§2) Finally, inhibition of the respective kinases is calculated as the percentage inhibition of control activity.
(§3) Table S3. Experimental results from the Euroﬁns assay. Inhibition of four kinases (EGFR, PI3K, ErbB2, BRAF) was measured at compound concentrations of 20 µM. Inhibition was calculated as % inhibition of control activity. According to CRO, values above 50% inhibition represent signiﬁcant inhibition, values above 25% weak inhibition effect and values below 25% as well as negative values are usually not signiﬁcant. Results are reported in mean (SD) format. […]
(§4) a Compound interfered with assay readout.

BRAF [2] = target: T2, BRAF (Homo sapiens, UniProt P15056); assay: DiscoverX KINOMEscan competition binding assay; details: for % control, BRAF (DiscoverX): compound 10 µM, lower values = higher affinity, below 35% = significant binding
T2 construct: purchased DiscoverX (KINOMEscan service); host or cells: E. coli BL21-derived host (T7 phage) or HEK-293
Procedure: (§5) Ligand binding experiments for the molecules selected from Profiles 1 and 2 towards nine kinases (EGFR, ErbB2, LCK, CDK2, BRAF, MET, p38α, PI3K and VEGFR2) and for molecules selected from Profiles 3 and 4 towards four kinases (EGFR, ErbB2, BRAF and VEGFR2) were carried out by DiscoverX using the supplied protocol as described in the Supplementary Materials. Briefly, ligand affinity was measured by competition with a resin-bound standard ligand and washed-off kinase concentration was determined via qPCR.
(§6) Summarizing, binding of a compound to a kinase was tested in comparison to a control compound (see Table S2). […]
(§7) 1.1. DiscoverX kinase assay
(§8) For most assays, kinase-tagged T7 phage strains were grown in parallel in 24-well blocks in an E.coli host derived from the BL21 strain. E.coli were grown to log-phase and infected with T7 phage from a frozen stock (multiplicity of infection = 0.4) and incubated with shaking at 32°C until lysis (90-150 minutes). The lysates were centrifuged (6,000 x g) and ﬁltered (0.2µm) to remove cell debris.
(§9) The remaining kinases were produced in HEK-293 cells and subsequently tagged with DNA for qPCR detection. Streptavidin-coated magnetic beads were treated with biotinylated small molecule ligands for 30 minutes at room temperature to generate afﬁnity resins for the kinases. The liganded beads were blocked with excess biotin and washed with blocking buffer (SeaBlock [Pierce], 1% BSA, 0.05% Tween 20, 1 mM DTT) to remove unbound ligands and to reduce non-speciﬁc phage binding. Binding reactions were assembled by combining kinases, liganded afﬁnity beads, and test compounds in 1x binding buffer (20% SeaBlock, 0.17x PBS, 0.05% Tween 20, 6 mM DTT). Test compounds were prepared as 40x stocks in 100% DMSO and directly diluted into the assay. All reactions were performed in polypropylene 384-well plates in a ﬁnal volume of 0.02 ml. The assay plates were incubated at room temperature with shaking for 1 hour and the afﬁnity beads were washed with wash buffer (1x PBS, 0.05% Tween 20). The beads were then re-suspended in elution buffer (1x PBS, 0.05% Tween 20, 0.5 µM non-biotinylated afﬁnity ligand) and incubated at room temperature with shaking for 30 minutes. The kinase concentration in the eluates was measured by qPCR. […]
(§10) Table S2. Experimental % control values from the DiscoverX kinase assay. Compounds were tested against the nine kinases EGFR, ErbB2, LCK, CDK2, BRAF, MET, p38α, PI3K and VEGFR2, unless otherwise stated. Binding of kinase and compound were tested at a compound concentration of 10 µM and in comparison to a control compound. Lower values indicate a higher afﬁnity of the compound to the protein and values below 35% indicate signiﬁcant binding according to information of the CRO. […]
(§11) a Compounds were only tested against four kinases (EGFR, ErbB2, BRAF and VEGFR2). b Compound was selected independently from two docking proﬁles and tested separately during

EGFR [3] = target: T3, EGFR (Homo sapiens, UniProt P00533); assay: DiscoverX KINOMEscan competition binding assay; details: compound 10 µM; lower values = higher affinity; below 35% = significant binding
T3 construct: purchased DiscoverX (KINOMEscan service); host or cells: E. coli BL21-derived host (T7 phage) or HEK-293
Procedure: as §5, §6, §7, §8, §9, §10, §11

MET = target: T4, MET (Homo sapiens, UniProt P08581); assay: DiscoverX KINOMEscan competition binding assay; details: compound 10 µM; lower values = higher affinity; below 35% = significant binding
T4 construct: purchased DiscoverX (KINOMEscan service); host or cells: E. coli BL21-derived host (T7 phage) or HEK-293
Procedure: as §5, §6, §7, §8, §9, §10, §11

LCK = target: T5, LCK (Homo sapiens, UniProt P06239); assay: DiscoverX KINOMEscan competition binding assay; details: compound 10 µM; lower values = higher affinity; below 35% = significant binding
T5 construct: purchased DiscoverX (KINOMEscan service); host or cells: E. coli BL21-derived host (T7 phage) or HEK-293
Procedure: as §5, §6, §7, §8, §9, §10, §11

ErbB2 [4] = target: T6, ErbB2 (Homo sapiens, UniProt P04626); assay: DiscoverX KINOMEscan competition binding assay; details: compound 10 µM; lower values = higher affinity; below 35% = significant binding
T6 construct: purchased DiscoverX (KINOMEscan service); host or cells: E. coli BL21-derived host (T7 phage) or HEK-293
Procedure: as §5, §6, §7, §8, §9, §10, §11

p38α = target: T7, p38α (Homo sapiens, UniProt Q16539); assay: DiscoverX KINOMEscan competition binding assay; details: compound 10 µM; lower values = higher affinity; below 35% = significant binding
T7 construct: purchased DiscoverX (KINOMEscan service); host or cells: E. coli BL21-derived host (T7 phage) or HEK-293
Procedure: as §5, §6, §7, §8, §9, §10, §11

VEGFR2 = target: T8, VEGFR2 (Homo sapiens, UniProt P35968); assay: DiscoverX KINOMEscan competition binding assay; details: compound 10 µM; lower values = higher affinity; below 35% = significant binding
T8 construct: purchased DiscoverX (KINOMEscan service); host or cells: E. coli BL21-derived host (T7 phage) or HEK-293
Procedure: as §5, §6, §7, §8, §9, §10, §11

CDK2 = target: T9, CDK2 (Homo sapiens, UniProt P24941); assay: DiscoverX KINOMEscan competition binding assay; details: compound 10 µM; lower values = higher affinity; below 35% = significant binding
T9 construct: purchased DiscoverX (KINOMEscan service); host or cells: E. coli BL21-derived host (T7 phage) or HEK-293
Procedure: as §5, §6, §7, §8, §9, §10, §11

BRAF [5] = target: T2, BRAF; assay: Eurofins in vitro kinase inhibition assay; assay type: biochemical; details: compound 20 µM; mean (SD); above 50% significant, 25-50% weak
Procedure: as §1, §2, §3, §4

EGFR [6] = target: T3, EGFR; assay: Eurofins in vitro kinase inhibition assay; assay type: biochemical; details: compound 20 µM; mean (SD); above 50% significant, 25-50% weak
Procedure: as §1, §2, §3, §4

ErbB2 [7] = target: T6, ErbB2; assay: Eurofins in vitro kinase inhibition assay; assay type: biochemical; details: compound 20 µM; mean (SD); above 50% significant, 25-50% weak
Procedure: as §1, §2, §3, §4

PI3K [8] = target: T1, PI3K; assay: DiscoverX KINOMEscan competition binding assay; design: purchased DiscoverX (KINOMEscan service); host or cells: E. coli BL21-derived host (T7 phage) or HEK-293; details: compound 10 µM; lower values = higher affinity; below 35% = significant binding
Procedure: as §5, §6, §7, §8, §9, §10, §11

T8 sequence (P35968 20-1356): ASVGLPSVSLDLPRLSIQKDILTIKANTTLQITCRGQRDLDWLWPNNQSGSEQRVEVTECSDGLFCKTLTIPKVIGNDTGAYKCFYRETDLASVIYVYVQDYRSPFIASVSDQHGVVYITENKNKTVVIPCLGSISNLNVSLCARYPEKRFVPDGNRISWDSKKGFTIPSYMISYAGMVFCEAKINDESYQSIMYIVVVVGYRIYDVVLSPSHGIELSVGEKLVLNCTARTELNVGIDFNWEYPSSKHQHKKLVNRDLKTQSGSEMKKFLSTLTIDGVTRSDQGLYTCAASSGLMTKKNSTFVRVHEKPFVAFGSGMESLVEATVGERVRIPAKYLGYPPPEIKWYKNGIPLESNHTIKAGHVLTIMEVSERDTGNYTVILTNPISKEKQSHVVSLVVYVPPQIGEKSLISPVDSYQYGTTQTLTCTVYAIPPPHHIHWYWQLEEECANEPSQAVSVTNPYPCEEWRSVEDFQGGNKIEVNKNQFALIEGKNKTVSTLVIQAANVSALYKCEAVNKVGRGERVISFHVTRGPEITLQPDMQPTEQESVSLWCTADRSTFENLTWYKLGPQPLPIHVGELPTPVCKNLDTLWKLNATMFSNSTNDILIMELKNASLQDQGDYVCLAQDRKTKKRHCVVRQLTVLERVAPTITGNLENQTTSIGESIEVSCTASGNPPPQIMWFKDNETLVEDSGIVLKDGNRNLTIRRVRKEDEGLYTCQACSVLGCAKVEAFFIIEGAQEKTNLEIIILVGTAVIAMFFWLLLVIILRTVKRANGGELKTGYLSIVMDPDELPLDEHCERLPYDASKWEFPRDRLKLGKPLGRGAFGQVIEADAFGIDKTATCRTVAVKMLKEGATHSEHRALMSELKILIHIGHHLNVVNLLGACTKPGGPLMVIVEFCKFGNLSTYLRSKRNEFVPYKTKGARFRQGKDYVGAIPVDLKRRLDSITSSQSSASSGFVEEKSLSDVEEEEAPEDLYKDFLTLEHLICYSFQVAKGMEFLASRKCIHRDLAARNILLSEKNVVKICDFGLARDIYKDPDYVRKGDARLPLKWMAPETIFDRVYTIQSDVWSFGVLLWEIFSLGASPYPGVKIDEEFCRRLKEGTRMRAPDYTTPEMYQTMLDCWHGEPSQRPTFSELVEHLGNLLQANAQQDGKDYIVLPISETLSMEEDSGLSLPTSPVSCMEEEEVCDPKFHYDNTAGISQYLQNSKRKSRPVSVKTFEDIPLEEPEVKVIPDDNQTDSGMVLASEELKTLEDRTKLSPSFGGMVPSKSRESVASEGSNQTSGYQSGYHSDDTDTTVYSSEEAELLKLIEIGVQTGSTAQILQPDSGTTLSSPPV
T2 sequence (P15056 whole entry): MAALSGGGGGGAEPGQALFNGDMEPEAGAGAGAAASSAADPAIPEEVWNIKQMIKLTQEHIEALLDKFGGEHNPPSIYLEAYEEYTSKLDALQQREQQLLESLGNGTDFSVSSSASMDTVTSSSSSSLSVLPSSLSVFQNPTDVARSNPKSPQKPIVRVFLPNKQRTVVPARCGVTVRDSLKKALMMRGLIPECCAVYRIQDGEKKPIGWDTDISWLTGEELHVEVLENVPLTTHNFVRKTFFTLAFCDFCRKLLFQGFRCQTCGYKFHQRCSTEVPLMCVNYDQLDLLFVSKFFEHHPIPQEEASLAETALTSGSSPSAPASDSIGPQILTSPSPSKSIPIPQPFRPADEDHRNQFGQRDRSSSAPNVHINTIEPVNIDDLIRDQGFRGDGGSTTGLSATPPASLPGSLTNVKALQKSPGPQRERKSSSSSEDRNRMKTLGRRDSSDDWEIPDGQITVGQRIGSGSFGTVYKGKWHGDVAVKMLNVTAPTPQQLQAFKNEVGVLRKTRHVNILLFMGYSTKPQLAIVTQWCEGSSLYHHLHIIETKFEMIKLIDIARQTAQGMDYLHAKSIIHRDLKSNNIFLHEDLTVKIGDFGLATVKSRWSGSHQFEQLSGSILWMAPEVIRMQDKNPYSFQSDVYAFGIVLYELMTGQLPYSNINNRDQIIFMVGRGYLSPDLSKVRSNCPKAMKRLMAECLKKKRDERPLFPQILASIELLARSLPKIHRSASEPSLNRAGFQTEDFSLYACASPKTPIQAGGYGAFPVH
T6 sequence (P04626 23-1255): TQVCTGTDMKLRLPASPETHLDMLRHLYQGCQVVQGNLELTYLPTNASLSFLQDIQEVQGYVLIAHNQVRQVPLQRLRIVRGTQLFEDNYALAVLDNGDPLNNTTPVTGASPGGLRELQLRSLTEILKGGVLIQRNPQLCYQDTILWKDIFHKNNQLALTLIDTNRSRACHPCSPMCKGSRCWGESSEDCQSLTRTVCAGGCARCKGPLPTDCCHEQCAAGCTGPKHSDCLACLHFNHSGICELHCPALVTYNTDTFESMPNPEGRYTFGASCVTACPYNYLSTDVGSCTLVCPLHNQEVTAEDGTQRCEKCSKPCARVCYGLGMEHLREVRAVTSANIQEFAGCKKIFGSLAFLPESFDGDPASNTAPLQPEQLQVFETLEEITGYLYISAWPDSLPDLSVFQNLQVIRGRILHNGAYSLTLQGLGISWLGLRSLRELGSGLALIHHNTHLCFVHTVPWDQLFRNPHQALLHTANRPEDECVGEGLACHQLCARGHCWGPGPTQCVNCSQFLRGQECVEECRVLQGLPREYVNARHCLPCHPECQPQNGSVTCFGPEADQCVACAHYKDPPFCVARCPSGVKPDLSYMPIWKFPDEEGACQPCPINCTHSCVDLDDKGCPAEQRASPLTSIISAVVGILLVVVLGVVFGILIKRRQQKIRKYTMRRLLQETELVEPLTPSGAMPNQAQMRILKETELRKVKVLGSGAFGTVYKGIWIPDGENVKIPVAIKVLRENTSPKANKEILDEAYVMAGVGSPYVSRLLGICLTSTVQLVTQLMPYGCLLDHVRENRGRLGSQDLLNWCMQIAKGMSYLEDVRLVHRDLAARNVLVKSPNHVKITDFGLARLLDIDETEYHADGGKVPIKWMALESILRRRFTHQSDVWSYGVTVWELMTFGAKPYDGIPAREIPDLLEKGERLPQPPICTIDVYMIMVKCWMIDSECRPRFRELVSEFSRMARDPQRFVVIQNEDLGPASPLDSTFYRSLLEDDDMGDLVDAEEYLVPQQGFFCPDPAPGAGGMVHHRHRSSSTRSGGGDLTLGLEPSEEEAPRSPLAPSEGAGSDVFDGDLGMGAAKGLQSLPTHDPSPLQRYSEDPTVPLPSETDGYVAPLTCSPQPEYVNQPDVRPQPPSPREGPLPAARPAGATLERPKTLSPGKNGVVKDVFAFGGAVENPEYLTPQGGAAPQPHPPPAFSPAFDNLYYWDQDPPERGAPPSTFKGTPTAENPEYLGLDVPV
T4 sequence (P08581 25-1390): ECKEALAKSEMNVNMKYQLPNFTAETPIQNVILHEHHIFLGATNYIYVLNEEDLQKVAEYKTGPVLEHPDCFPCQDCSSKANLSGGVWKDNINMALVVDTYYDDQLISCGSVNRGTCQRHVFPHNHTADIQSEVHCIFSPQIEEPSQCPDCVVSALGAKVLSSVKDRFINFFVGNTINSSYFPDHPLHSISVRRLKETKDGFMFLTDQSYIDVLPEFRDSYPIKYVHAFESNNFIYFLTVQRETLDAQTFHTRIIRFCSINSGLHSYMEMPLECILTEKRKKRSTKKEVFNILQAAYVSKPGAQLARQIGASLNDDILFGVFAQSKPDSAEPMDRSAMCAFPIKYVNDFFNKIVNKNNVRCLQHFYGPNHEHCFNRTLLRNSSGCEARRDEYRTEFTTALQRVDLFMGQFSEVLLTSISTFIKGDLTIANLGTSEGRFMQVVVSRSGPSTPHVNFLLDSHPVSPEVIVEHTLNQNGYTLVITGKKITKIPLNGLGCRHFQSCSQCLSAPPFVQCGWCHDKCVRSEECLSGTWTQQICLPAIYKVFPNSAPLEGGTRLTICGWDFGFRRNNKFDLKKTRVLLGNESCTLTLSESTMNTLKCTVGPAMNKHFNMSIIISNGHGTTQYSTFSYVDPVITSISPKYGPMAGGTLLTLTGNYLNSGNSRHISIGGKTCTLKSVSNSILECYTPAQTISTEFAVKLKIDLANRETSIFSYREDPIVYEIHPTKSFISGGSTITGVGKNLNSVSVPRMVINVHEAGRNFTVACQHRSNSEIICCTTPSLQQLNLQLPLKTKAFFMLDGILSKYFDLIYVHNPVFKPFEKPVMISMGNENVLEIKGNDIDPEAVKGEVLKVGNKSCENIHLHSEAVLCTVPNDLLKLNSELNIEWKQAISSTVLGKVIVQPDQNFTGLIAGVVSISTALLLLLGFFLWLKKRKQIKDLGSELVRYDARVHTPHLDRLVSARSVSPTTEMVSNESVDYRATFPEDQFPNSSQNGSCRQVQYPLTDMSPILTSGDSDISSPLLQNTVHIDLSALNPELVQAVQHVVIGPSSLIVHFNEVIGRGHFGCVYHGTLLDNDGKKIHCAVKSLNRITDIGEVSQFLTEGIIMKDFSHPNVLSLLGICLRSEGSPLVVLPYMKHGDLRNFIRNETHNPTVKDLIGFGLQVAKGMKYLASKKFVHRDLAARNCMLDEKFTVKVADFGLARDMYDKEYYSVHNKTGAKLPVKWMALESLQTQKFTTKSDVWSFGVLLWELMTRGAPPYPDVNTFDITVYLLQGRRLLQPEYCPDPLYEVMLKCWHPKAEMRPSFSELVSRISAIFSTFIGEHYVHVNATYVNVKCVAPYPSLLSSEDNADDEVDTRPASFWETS
T7 sequence (Q16539 whole entry): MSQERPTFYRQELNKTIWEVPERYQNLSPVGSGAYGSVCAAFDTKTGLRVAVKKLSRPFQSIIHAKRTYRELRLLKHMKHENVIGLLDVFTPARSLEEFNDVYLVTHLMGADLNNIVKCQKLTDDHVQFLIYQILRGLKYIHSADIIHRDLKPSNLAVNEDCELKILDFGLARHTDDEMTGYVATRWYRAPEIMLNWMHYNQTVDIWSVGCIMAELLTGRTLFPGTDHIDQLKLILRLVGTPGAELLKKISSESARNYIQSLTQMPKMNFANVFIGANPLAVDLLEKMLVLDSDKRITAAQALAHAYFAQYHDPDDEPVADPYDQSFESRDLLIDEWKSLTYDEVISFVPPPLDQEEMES

SMILES | % inhibition of control activity, PI3K (Eurofins) (PI3K [1]) | % control, BRAF (DiscoverX) (BRAF [2]) | % control, EGFR (DiscoverX) (EGFR [3]) | % control, MET (DiscoverX) (MET) | % control, LCK (DiscoverX) (LCK) | % control, ErbB2 (DiscoverX) (ErbB2 [4]) | % control, p38α (DiscoverX) (p38α) | % control, VEGFR2 (DiscoverX) (VEGFR2) | % control, CDK2 (DiscoverX) (CDK2) | % inhibition of control activity, BRAF (Eurofins) (BRAF [5]) | % inhibition of control activity, EGFR (Eurofins) (EGFR [6]) | % inhibition of control activity, ErbB2 (Eurofins) (ErbB2 [7]) | % control, PI3K (DiscoverX) (PI3K [8]) | % ctrl. activity at 10 µM, BRAF (DiscoverX), printed as symbol (BRAF [2]; 10 µM, Table 3)
Cc1ccc(NC(=O)COC(=O)c2cc(=O)[nH]c3ccccc23)cc1 [K001MM012] | – | 100 % control | 90 % control | – | – | 100 % control | – | 91 % control | – | – | – | – | – | –
CC1Oc2ccc(Nc3ncnc4c3oc3ccccc34)cc2NC1=O (centres unmarked) [K001MM011] | – | 100 % control | – | – | – | – | – | 99 % control | – | – | – | – | – | – ^d (percent control activity ≥ 99%, i.e., no measurable inhibition)
COCCNC(=O)NC(C)Cc1ccc(O)cc1 (centres unmarked) [K001MM004] | – | 100 % control | 100 % control | – | – | 100 % control | – | 100 % control | – | – | – | – | – | –
CCOCC(C)(C)NC(=O)Nc1cc(F)ccc1OC [K001MM006] | – | 100 % control | 96 % control | – | – | 100 % control | – | 100 % control | – | – | – | – | – | –
Cc1cccc(NC(=O)N[C@H](C)[C@H](C)N2CCOCC2)n1 [K001MM007] | – | 87 % control | 90 % control | – | – | 94 % control | – | 100 % control | – | – | – | – | – | –
CC(C)OCC(O)CN1CCN(C(=O)c2cccc(Cl)c2)CC1 (centres unmarked) [K001MM002] | – | 89 % control | 97 % control | – | – | 92 % control | – | 100 % control | – | – | – | – | – | –
CCCCn1nnnc1CN1CCc2nn(CC)c(=O)cc2C1 [K001MM005] | – | 99 % control | 100 % control | – | – | 100 % control | – | 100 % control | – | – | – | – | – | –
Nc1nc(N2CCC[C@H](Cc3nc4ccccc4[nH]3)C2)c2nc[nH]c2n1 [K001MM010] | – | 100 % control | 95 % control | – | – | 90 % control | – | 97 % control | – | – | – | – | – | –
Cc1cc(COC(=O)c2cnc3c(cnn3Cc3ccccc3)c2)on1 [K001MM013] | – | 100 % control | 100 % control | – | – | 94 % control | – | 90 % control | – | – | – | – | – | –
Cc1ccccc1Cn1cnc2c(nnn2-c2ccccc2)c1=O [K001MM003] | – | 95 % control | 99 % control | – | – | 99 % control | – | 100 % control | – | – | – | – | – | –

Further lines, with some results ahead:

% inhibition of control activity, PI3K (Eurofins) (PI3K [1]) | % control, BRAF (DiscoverX) (BRAF [2]) | % control, EGFR (DiscoverX) (EGFR [3]) | % control, MET (DiscoverX) (MET) | % control, LCK (DiscoverX) (LCK) | % control, ErbB2 (DiscoverX) (ErbB2 [4]) | % control, p38α (DiscoverX) (p38α) | % control, VEGFR2 (DiscoverX) (VEGFR2) | % control, CDK2 (DiscoverX) (CDK2) | % inhibition of control activity, BRAF (Eurofins) (BRAF [5]) | % inhibition of control activity, EGFR (Eurofins) (EGFR [6]) | % inhibition of control activity, ErbB2 (Eurofins) (ErbB2 [7]) | % control, PI3K (DiscoverX) (PI3K [8]) | SMILES | % ctrl. activity at 10 µM, BRAF (DiscoverX), printed as symbol (BRAF [2]; 10 µM, Table 3)
1.5 (5.8) % inhibition | 95 % control | 90 % control | 87 % control | 100 % control | 96 % control | 97 % control | 100 % control | 100 % control | -6.3 (1.6) % inhibition | 16.6 (0.4) % inhibition | 3.1 (3.3) % inhibition | 66 % control | Cc1[nH]c2nc3c(c(=O)n(Cc4ccccc4)c(=O)n3C)n2c1C [DS62156] | –
-2 (0.8) % inhibition | 92 % control | 90 % control | 100 % control | 100 % control | 100 % control | 100 % control | 100 % control | 99 % control | -11.3 (4.2) % inhibition | 16.1 (7.5) % inhibition | -1.6 (1.9) % inhibition | 100 % control | CC1(C)C2CC=C(COC(=O)c3cnn4cccnc34)C1C2 (centres unmarked) [DS34376] | –
– | 99 % control | 100 % control | 99 % control | 100 % control | 100 % control | 100 % control | 100 % control | 99 % control | -19.7 (2.4) % inhibition | 10.7 (0.4) % inhibition | -7.2 (5.7) % inhibition | 97 % control | CCc1nccc(-c2nccn2C(Cn2cccn2)c2ccccc2)n1 (centres unmarked) [DS23815] | –
– | 100 % control | 100 % control | 100 % control | 99 % control | 100 % control | 100 % control | 100 % control | 100 % control | -27.8 (10.8) % inhibition | 9.6 (0.2) % inhibition | -1.7 (0.8) % inhibition | 73 % control | COCCCNC(=O)c1nc2c3c4c(sc3ncn2n1)CC[C@H](C)C4 [DS31939] | –
